Experimental data as given in a melting point compilation (Tetko et al.; mined from patent text by program, amines drawn as free bases though some values may be those of a salt).

Structure (SMILES)	melting point
OCCCOc1cccc2cccnc12	126 to 127 °C
Nc1ncc2cc(-c3ccccn3)c(N)nc2n1	312 to 321 °C
COC(=O)CCC(NC(=O)Cc1cc(C)c(C(=O)c2ccc(Cl)cc2)n1C)C(=O)OC (stereo unspecified)	129 to 130 °C
CCN1CCCC1CNS(=O)(=O)c1ccc(Nc2ccnc3cc(Cl)ccc23)cc1 (stereo unspecified)	200 to 202 °C
CCCCCCCNC(=O)Nc1ccc(CCc2cc(C(C)(C)C)c(O)c(C(C)(C)C)c2)cc1	151 to 152 °C
CCOC(=O)/C=C/c1ccc(OCCC2OCCO2)cc1Oc1ncc(C(F)(F)F)cc1Cl	102 to 103 °C
O=S1(=O)N=CN(C2CCCCCCC2)c2ccc(Cl)cc21	235 to 237 °C
Cc1cc(C)c(S(=O)(=O)NC(CN2CCCc3cc(C)ccc32)C(F)(F)F)c(C)c1 (stereo unspecified)	143 to 144 °C
CN1C2CCC1CN(c1ccc(C#Cc3ccc(N)cc3)nn1)C2	204 to 210 °C
CCCc1c(OCC(O)CSc2ccc(C(=O)CCC(=O)O)cc2F)ccc(C(C)=O)c1O (stereo unspecified)	106 to 109 °C
CSC(=C[N+](=O)[O-])N(C)C	60 °C
C#CCn1c(=O)sc2cc(F)c(-n3c(=O)cc(C(F)(F)F)[nH]c3=O)cc21	224 to 227 °C
CC(=O)N1CCN=C1COc1cccc(C)c1C	127 to 130 °C
CC(=O)Nc1cccc(N(C)C)n1	118 to 119 °C
O=C(Nc1cccnc1)N1CCc2cc(Cl)ccc21	204 to 205 °C
Cc1ccc(-c2cc(F)cc3c2NC(CN)CO3)c(C(F)(F)F)c1 (stereo unspecified)	86 °C

Structure (SMILES)	melting point
O=C(N[C@H]1CC[C@H](CCN2CCN(c3nccc4c3OCC4)CC2)CC1)c1ccc(N2CCOCC2)nc1	231 °C
CCCc1c(OCC(O)CSc2nnc(SCC(=O)O)s2)ccc(C(C)=O)c1O (stereo unspecified)	72 to 75 °C
CCSc1nc(=O)[nH]cc1C	181 to 184 °C
OC1Cc2cc(F)c(F)cc2C1	57 to 58 °C
OC1CSC(Oc2ccc(-c3ccoc3)nc2)C(O)C1O (stereo unspecified)	132 °C
CC(=O)Nc1ccc(SC(F)(F)C(F)F)cc1	134 to 135 °C
NC(=O)COC(=O)c1c(Cl)ccc(Cl)c1Cl	158 to 160 °C
CCOC(=O)COc1cc(-n2nc(C)n(C(F)F)c2=O)c(Cl)cc1Cl	118 to 119 °C
CCC(c1cccs1)c1c(O)c2c(oc1=O)CCCCCC2 (stereo unspecified)	163 to 165 °C
Nc1nc(NC2CC2)c2sc(=O)n(C3OC(CO)C(O)C3O)c2n1 (stereo unspecified)	> 100 °C
COc1ccc(NC(=O)C2C(=O)N(C)C(=S)N(C)C2=O)cc1Oc1ccc(C(F)(F)F)cc1Cl	165 to 168 °C
CC(=O)N1CCCC2=C1CCc1cc(Cl)ccc12	106 to 108 °C
CCOC(=O)/C=C/c1ccccc1C1C(C(=O)OCC)=C(C)NC(C)=C1C(=O)OCC	130 to 131 °C
Cc1cc2c(cc1C)C(C(F)(F)F)(C(F)(F)C(F)(F)F)c1cc(C)c(C)cc1O2	139 to 140 °C
Cc1ccncc1Cn1nnnc1-c1cc(Cl)ccc1Cl	169 to 171 °C
Cc1cc(C)c2nc(NC3CCN(CCO)CC3)n(Cc3nc(C)ccc3O)c2c1	177 °C

The next lines start with the values.

melting point	Structure (SMILES)
122 to 124 °C	COc1ccc(CC2N(C)CCC(O)(c3ccccc3)C2(C)C)cc1 (stereo unspecified)
112 to 114 °C	O=C(Cc1ccccc1F)c1ccc(I)cc1
162 to 163 °C	COc1ccnc(C(=O)c2[nH]c3cc(Cl)ccc3c2NC(=O)CC(C)C)c1
95 °C	COc1ccc(-c2ccc(C)n2CC[C@H]2C[C@H](O)CC(=O)O2)cc1 (relative stereo)
310 °C	O=C1c2c(Cl)cccc2-c2n[nH]c3cccc1c23
240 to 242 °C	CC(=O)c1c(C)nc(C)n1-c1cc(C)c2[nH]c(=O)ccc2c1
197 to 198 °C	CC(C)(C)OC(=O)C(C1NC(C(=O)OCc2ccccc2)C2(CCSCC2)S1)N1C(=O)c2ccccc2C1=O (stereo unspecified)
110 to 112 °C	N#CN=C(NCCC[C@@H](NC(=O)C(c1ccccc1)c1ccccc1)C(=O)NCc1ccc(O)cc1)Oc1ccccc1
99 to 101 °C	CC(=O)CCc1ccc2c(c1)Cc1ccccc1-2
63 to 67 °C	COC(=O)c1ccc(OCCNC(=O)C2Cc3ccccc3N2S(=O)(=O)c2ccc(-c3cccc(C(F)(F)F)c3)cc2)cc1Cl (stereo unspecified)
267 to 278 °C	COc1ccccc1-c1c2nn(-c3ccc(Cl)cc3)c(=O)c-2c[nH]c1C
182 to 183 °C	O=C1NC(=O)C(=Cc2ccc(SCCc3ccccc3)cc2)S1
151 to 152 °C	CSc1ccc(CC(=O)NC(NC(=NC#N)Nc2ccccc2C)C(C)(C)C)cc1 (stereo unspecified)
165 °C	Cc1ccc(S(=O)(=O)N2[C@@H](c3ncon3)CC[C@H]2c2ccc(F)cc2)cc1 (racemic)
166 to 167 °C	COc1nc(Br)cnc1NS(=O)(=O)c1cccc2c(N(C)C)cccc12
271 to 273 °C	CC(C)(C)c1ccc2c(c1)cc(-c1ccccc1)n2-c1ccc(O)c(C(=O)O)c1
243 to 245 °C	O=Cc1cc2ccccc2c(-c2ccc(I)cc2)n1
219 to 220 °C	CCOC(=O)C1=C(C)NC2=C(C(=O)OC2)C1c1ccccc1OC (stereo unspecified)
195 to 196 °C	CCCS(=O)(=O)N[C@@H](CC(C)C)C(=O)N[C@@H](C(C)C)[C@@H](O)c1c(-c2ccccc2)c1=O
164 to 166 °C	Cc1cccc2ncc(C(=O)NC(C)(C)C)c(=O)n12

melting point	Structure (SMILES)
144 to 145 °C	O=c1oc2ccc(-c3ccc(F)cc3F)cc2c(=O)n1-c1cc(F)ccc1F
185 to 190 °C	CC(=Nc1ccc(C2=NNC(=O)CC2C)cc1)c1ccc(O)cc1O (stereo unspecified)
112 to 114 °C	O=C(O)COc1cccc2c1OCc1sc(SCCC(c3ccccc3)c3ccccc3)nc1-2
155 °C	CC(C)C(=O)Oc1ccc2c(c1Cl)Sc1ccccc1N2
166 to 169 °C	O=C(CCl)NC(c1ccccc1)C(O)c1ccccc1 (stereo unspecified)
94.5 to 95 °C	CCN(Cc1ccc(C(=O)O)cc1)c1cc(Br)ccc1OCc1ccccc1
208 to 210 °C	CC1(C)Cc2cc(O)c3c(c2C(c2ccccc2)=N1)CC(C)(C)O3
118 to 119 °C	COc1cc(NC(C)=O)ccc1OCCN1CCN(c2ccccc2F)CC1
264 to 265 °C	COc1cc2c3c(cccc3c1[N+](=O)[O-])C(=O)N(O)C2=O
94 to 96 °C	OCC(O)COCCCCCCCCOc1ccc(-c2ccccc2)cc1 (stereo unspecified)
77 to 78 °C	COC(=O)C(CCC(C)(C)Cl)N(C)S(=O)(=O)NC(=O)OCc1ccccc1 (stereo unspecified)
110 to 112 °C	O=C(CCc1cccnc1)NCCCCC1CCN(C2c3ccccc3COc3ccccc32)CC1 (stereo unspecified)
149 to 150 °C	O=C(c1ccccc1Cl)c1ccccc1C#CCN1C(=O)c2ccccc2C1=O
171 to 174 °C	C=CCOc1cc(=O)n(-c2ccccc2)c2ncccc12
44 to 49 °C	CC(CCc1ccccc1)NC1CCC(c2ccc(O)cc2)CC1 (racemic)
174 °C	O=C(O)CCCc1cc2nc(Cl)ccc2n1S(=O)(=O)c1ccc(Cl)cc1
217 to 219 °C	O=C(NNC(=O)c1ccccc1Cl)c1ccccc1Cl
150 to 151 °C	COc1ccc(-c2c(NC(C)(C)Cc3ccccc3)c(=O)c2=O)cc1
270 to 271 °C	O=C(Nc1ccc(O)c(C(=O)O)c1)c1ccc([N+](=O)[O-])cc1
